In ChEMBL document CHEMBL1122197, “Pyridoquinoxaline N-oxides. 1. A new class of antitrichomonal agents” (1982):

Tests used:
Tritrichomonas foetus [1] = test: Tested for anti-trichomonal activity in Tritrichomonas foetus, expressed as % reduction in the severity of peritoneal cavity infection at the dose of 25 mg/kg
Tritrichomonas foetus [2] = test: Tested for anti-trichomonal activity in Tritrichomonas foetus, expressed as % reduction in the severity of peritoneal cavity infection at the dose of 12.50 mg/kg; conditions: dose 12.5 mg/kg
Tritrichomonas foetus [3] = test: Tested for anti-trichomonal activity in Tritrichomonas foetus, expressed as % reduction in the severity of peritoneal cavity infection at the dose of 50 mg/kg

Structure (SMILES)	Reduction (Tritrichomonas foetus [1]) [%]	Reduction (Tritrichomonas foetus [2]) [%]	Reduction (Tritrichomonas foetus [3]) [%]
Cn1c(=O)ccc2c1nc1ccccc1[n+]2[O-]	23	–	–
COC(Cn1c(=N)ccc2c1nc1ccccc1[n+]2[O-])OC	25	–	–
CCn1c(=N)ccc2nc3ccccc3nc21	89	0	–
CCCn1c(=N)ccc2c1nc1ccccc1[n+]2[O-]	–	–	0
C=CCn1c(=N)ccc2c1nc1ccccc1[n+]2[O-]	38	–	–
N=c1ccc2c(nc3ccccc3[n+]2[O-])n1CCO	57	–	–
N=c1ccc2c(nc3ccccc3[n+]2[O-])n1Cc1ccncc1	81	18	95
Cn1c(=O)ccc2nc3ccccc3nc21	18	–	–
Cn1c(=N)ccc2nc3ccccc3nc21	75	34	98
N=c1ccc2c(nc3ccccc3[n+]2[O-])n1C1CCCCC1	96	21	–
N=c1ccc2c(nc3ccccc3[n+]2[O-])n1Cc1ccccc1	19	–	–
CCn1c(=N)ccc2c1nc1ccccc1[n+]2[O-]	100	0	–
COCCn1c(=N)ccc2c1nc1ccccc1[n+]2[O-]	96	0	–
CCOCCn1c(=N)ccc2c1nc1ccccc1[n+]2[O-]	–	–	9
Cn1c(=N)ccc2c1nc1ccccc1[n+]2[O-]	97	100	98
N=c1ccc2nc3ccccc3nc2n1Cc1ccncc1	–	–	15
